The results in this text go back to patent publication US10058579B2, “Dietary supplements containing extracts of cinnamon and methods of using same to promote enhanced sirtuin, cell and telomere integrity” (IN Ingredients, Inc., priority 2010, dated 2018).

The subject of the experiment is SIRT family mRNA expression. The experiment can be described thus: sirtuin (SIRT family) mRNA expression in rat primary enterocytes, quantitative PCR. Type of experiment: cell-based. The note with it: 2 μg/ml; enterocytes of chow-fed rats; FIG. 2. From the text: The baseline value for the effects of a high fructose diet on SIRT family mRNA expression is established. The experimental protocols parallel those of Firestein, R., et al., PLoS ONE, 2008; 3(4): e2020. doi:10.1371/journal.pone.0002020 except using Wistar rats. The animals fed ad libitum with water and either a standard chow diet or a high fructose diet. Primary enterocytes are obtained from animals (6 months of age) following sacrifice and rapid harvest of the intestine. The isolated intestine is thoroughly flushed with ice cold PBS.
Total RNA is isolated from primary enterocyte tissue obtained as above, adipose tissue (obtained by biopsy), or liver (obtained by biopsy) using TR1 reagent (Applied Biosystems, Austin, Tex.), according to the manufacturer's guidelines. The resulting total RNA is subjected to DNase treatment using RNase-free DNase (Ambion). The purity of isolated RNA is measured by a NanoDrop spectrophotometer. A set concentration of RNA is reverse transcribed into cDNA using SuperScript II RT, and quantitative PCR is performed on ABI Prism 7500 Sequence Detection System (Applied Biosystems, Carlsbad, Calif.) using SYBR Green PCR Master Mix (Applied Biosystems, Carlsbad, Calif.).
The level of sirtuin mRNA expression is assayed following exposure of rat primary enterocytes to the anthocyanin delphinidin. […]

For `Oc1cc(O)c2cc(O)c(-c3cc(O)c(O)c(O)c3)[o+]c2c1` [delphinidin], the “increase of sirtuin gene expression as measured by mRNA levels over control” value is given as 2-3 fold.
